In patent US8247211B2, “Glycopeptide antibiotics” (American Cyanamid Company, priority 2001, dated 2012):
Values after ≈ are worked out from the molar mass of the structure shown.

How the values were obtained:
Assay in all cases: In vitro antibacterial evaluation: minimum inhibitory concentration (MIC), broth dilution method
Assay type in all cases: cell-based
Enterococcus sp. = conditions: 18 hours at 35° C.
Summary of the method: (§1)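 First, organisms are seeded at 5×10^5 CFU/mL into Muller-Hinton II […]. Next, antibiotic is applied across 64-0.06 μg/mL by broth dilution (NCCLS M7-A2). Finally, the lowest inhibitory concentration is recorded as MIC.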

Escherichia coli = conditions: 18 hours at 35° C.
Summary of the method: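 NCCLS M7-A2 broth dilution with Mueller-Hinton II, testing 64-0.06 μg/mL antibiotic against 5×10^5 CFU/mL inocula. Test strains include recent methicillin-, penicillin- or vancomycin-resistant clinical isolates. MIC is the lowest concentration preventing growth.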

Staphylococcus sp. = tested on: Staphylococcus sp.
Summary of the method: as §1

Streptococcus sp. = conditions: 18 hours at 35° C.
Summary of the method: as §1

[1] = broth dilution, inoculum 5×10^5 CFU/mL

MIC Enterococcus avium (GC 4558) (Enterococcus sp.; Enterococcus avium (GC 4558)): 2 µg/mL (≈ 1.4 µM)
MIC Enterococcus faecalis (ATCC 29212) (Enterococcus sp.; Enterococcus faecalis (ATCC 29212)): 2 µg/mL (≈ 1.4 µM)
MIC Enterococcus faecalis (GC 2242) (Enterococcus sp.; Enterococcus faecalis (GC 2242)): 2 µg/mL (≈ 1.4 µM)
MIC Enterococcus faecalis (GC 2691) (Enterococcus sp.; Enterococcus faecalis (GC 2691)): 2 µg/mL (≈ 1.4 µM)
MIC Enterococcus faecalis (GC 3059) (Enterococcus sp.; Enterococcus faecalis (GC 3059)): 2 µg/mL (≈ 1.4 µM)
MIC Enterococcus faecalis (GC 4552) (Enterococcus sp.; Enterococcus faecalis (GC 4552)): 2 µg/mL (≈ 1.4 µM)
MIC Enterococcus faecalis (GC 4553) (Enterococcus sp.; Enterococcus faecalis (GC 4553)): 2 µg/mL (≈ 1.4 µM)
MIC Enterococcus faecalis (GC 4554) (Enterococcus sp.; Enterococcus faecalis (GC 4554)): 2 µg/mL (≈ 1.4 µM)
MIC Enterococcus faecalis (GC 6189) (Enterococcus sp.; Enterococcus faecalis (GC 6189)): 2 µg/mL (≈ 1.4 µM)
MIC Enterococcus faecium (GC 2243) (Enterococcus sp.; Enterococcus faecium (GC 2243)): 1 µg/mL (≈ 0.7 µM)
MIC Enterococcus faecium (GC 4556) (Enterococcus sp.; Enterococcus faecium (GC 4556)): 2 µg/mL (≈ 1.4 µM)
MIC Enterococcus faecium (GC 4557) (Enterococcus sp.; Enterococcus faecium (GC 4557)): 2 µg/mL (≈ 1.4 µM)
MIC Enterococcus avium (GC 4558) (Enterococcus sp.; [1]): 2 µg/mL (≈ 1.4 µM)
MIC Enterococcus faecalis (ATCC 29212) (Enterococcus sp.; [1]): 2 µg/mL (≈ 1.4 µM)
MIC Enterococcus faecalis (GC 2242) (Enterococcus sp.; [1]): 2 µg/mL (≈ 1.4 µM)
MIC Enterococcus faecalis (GC 2691) (Enterococcus sp.; [1]): 2 µg/mL (≈ 1.4 µM)
MIC Enterococcus faecalis (GC 3059) (Enterococcus sp.; [1]): 2 µg/mL (≈ 1.4 µM)
MIC Enterococcus faecalis (GC 4552) (Enterococcus sp.; [1]): 2 µg/mL (≈ 1.4 µM)
MIC Enterococcus faecalis (GC 4553) (Enterococcus sp.; [1]): 2 µg/mL (≈ 1.4 µM)
MIC Enterococcus faecalis (GC 4554) (Enterococcus sp.; [1]): 2 µg/mL (≈ 1.4 µM)
MIC Enterococcus faecalis (GC 6189) (Enterococcus sp.; [1]): 2 µg/mL (≈ 1.4 µM)
MIC Enterococcus faecium (GC 2243) (Enterococcus sp.; [1]): 1 µg/mL (≈ 0.7 µM)
MIC Enterococcus faecium (GC 4556) (Enterococcus sp.; [1]): 2 µg/mL (≈ 1.4 µM)
MIC Enterococcus faecium (GC 4557) (Enterococcus sp.; [1]): 2 µg/mL (≈ 1.4 µM)
MIC Escherichia coli (ATCC 25922) (Escherichia coli; Escherichia coli (ATCC 25922)): 64 µg/mL (≈ 44.8 µM)
MIC Escherichia coli (GC 4559) (Escherichia coli; Escherichia coli (GC 4559)): 64 µg/mL (≈ 44.8 µM)
MIC Escherichia coli (GC 4560) (Escherichia coli; Escherichia coli (GC 4560)): 2 µg/mL (≈ 1.4 µM)
MIC Staphylococcus aureus (ATCC 29213) (Staphylococcus sp.; strain ATCC 29213): 2 µg/mL (≈ 1.4 µM)
MIC Staphylococcus aureus (GC 1131) (Staphylococcus sp.; strain GC 1131): 1 µg/mL (≈ 0.7 µM)
MIC Staphylococcus aureus (GC 3051) (Staphylococcus sp.; strain GC 3051): 32 µg/mL (≈ 22.4 µM)
MIC Staphylococcus aureus (GC 3053) (Staphylococcus sp.; strain GC 3053): 2 µg/mL (≈ 1.4 µM)
MIC Staphylococcus aureus (GC 4541) (Staphylococcus sp.; strain GC 4541): 2 µg/mL (≈ 1.4 µM)
MIC Staphylococcus aureus (GC 4542) (Staphylococcus sp.; strain GC 4542): 1 µg/mL (≈ 0.7 µM)
MIC Staphylococcus aureus-SMITH (GC 4543) (Staphylococcus sp.; strain GC 4543): 0.5 µg/mL (≈ 0.35 µM)
MIC Staphylococcus aureus (GC 4544) (Staphylococcus sp.; strain GC 4544): 1 µg/mL (≈ 0.7 µM)
MIC Staphylococcus aureus (GC 4545) (Staphylococcus sp.; strain GC 4545): 2 µg/mL (≈ 1.4 µM)
MIC Coagulase Negative Staphylococcus (GC 4547) (Staphylococcus sp.; strain GC 4547): 1 µg/mL (≈ 0.7 µM)
MIC Coagulase Negative Staphylococcus (GC 4548) (Staphylococcus sp.; strain GC 4548): 1 µg/mL (≈ 0.7 µM)
MIC Coagulase Negative Staphylococcus (GC 4549) (Staphylococcus sp.; strain GC 4549): 0.5 µg/mL (≈ 0.35 µM)
MIC Coagulase Negative Staphylococcus (GC 4551) (Staphylococcus sp.; strain GC 4551): 1 µg/mL (≈ 0.7 µM)
MIC Streptococcus agalactiae (GC 4564) (Streptococcus sp.; Streptococcus agalactiae (GC 4564)): <0.12 µg/mL
MIC Streptococcus pneumoniae (ATCC 6301) (Streptococcus sp.; Streptococcus pneumoniae (ATCC 6301)): <0.12 µg/mL
MIC Streptococcus pneumoniae (GC 1894) (Streptococcus sp.; Streptococcus pneumoniae (GC 1894)): <0.12 µg/mL
MIC Streptococcus pneumoniae (GC 4565) (Streptococcus sp.; Streptococcus pneumoniae (GC 4565)): <0.12 µg/mL
MIC Streptococcus pyogenes (GC 4563) (Streptococcus sp.; Streptococcus pyogenes (GC 4563)): <0.12 µg/mL
MIC Streptococcus agalactiae (GC 4564) (Streptococcus sp.; [1]): <0.12 µg/mL
MIC Streptococcus pneumoniae (ATCC 6301) (Streptococcus sp.; [1]): <0.12 µg/mL
MIC Streptococcus pneumoniae (GC 1894) (Streptococcus sp.; [1]): <0.12 µg/mL
MIC Streptococcus pneumoniae (GC 4565) (Streptococcus sp.; [1]): <0.12 µg/mL
MIC Streptococcus pyogenes (GC 4563) (Streptococcus sp.; [1]): <0.12 µg/mL
SMILES: CC(c1ccccc1)C1NC(=O)CNC(=O)C(CO)NC(=O)C(C(O)C2CNC(=N)N2C2OC(CO)C(O)C(O)C2O)NC(=O)C(C(O)C2CNC(=N)N2)NC(=O)C(Cc2ccc(OC3OC(CO)C(OC4OC5COC6(CC7CCC6(C)C7(C)C)OC5C(O)C4O)C(O)C3O)cc2)NC1=O (stereo not drawn) [Example 214, Cyclo[glycyl-β-methylphenylalanyl-O-[4-O-[4,6-O-(1,7,7-trimethylbicyclo[2.2.1]hept-2-ylidene)hexopyranosyl]hexopyranosyl]tyrosyl-3-(2-iminoimidazolidin-4-yl)seryl-3-(3-hexopyranosyl-2-iminoimidazolidin-4-yl)serylseryl]]
MIC Staphylococcus haemolyticus (GC 4546) (Staphylococcus sp.; strain GC 4546): 1 µg/mL (≈ 0.7 µM)
